Laboratory results published in patent US20170002421A1, “METHODS AND ASSAYS FOR DETERMINING REDUCED BRCA1 PATHWAY FUNCTION IN A CANCER CELL” (THE GENERAL HOSPITAL CORPORATION, priority 2013, published 2017).

How the values were obtained:
[1] = tested on: breast cancer cell line panel; assay: Pharmacologic inhibition assay (Crystal Violet, mean percent viability); format: cell-based, human
Experimental: All cell lines were obtained and maintained as previously described^15. Independent pharmacologic inhibition assays were conducted in triplicate for each cell line. Cells were seeded at 20,000 per well in a 24-well plate. After 24 hours, cells were treated in triplicate with indicated concentrations of: DMSO, temozolomide (SIGMA ALDRICH™, T2577), or AZD-2281 (SELLECK CHEMICALS™, S1060). After five days of incubation, cells were fixed in 4% formaldehyde and stained with 1% Crystal Violet (SIGMA ALDRICH™, C0775) for ten minutes at room temperature. Cells were then washed to remove unincorporated dye and plates were inverted to dry overnight. Incorporated dye was extracted with 10% acetic acid and OD595 measurements were obtained within a linear range. Treated cells were normalized to the vehicle-treated control to obtain mean percent viability.

[2] = clinical use, literature refs 34-38; cited from earlier work

Compound: O=C(c1cc(Cc2n[nH]c(=O)c3ccccc23)ccc1F)N1CCN(C(=O)C2CC2)CC1 [olaparib]
- inhibition (viability) in combination ([1]; 40 nM olaparib combined with 100 uM temozolomide, breast cancer cell line panel (FIG. 4A, lower panel)): exerts inhibition
- reduction in viability, single administration ([1]; either drug alone, seven of the tested cell lines with Garnett et al. expression data (FIG. 4B, top and middle panel)): did not demonstrate a significant reduction in viability
- inhibitory effects (viability) ([1]; olaparib alone, 40 nM, five days incubation, breast cancer cell line panel (FIG. 4A, middle panel)): does not demonstrate inhibitory effects alone
- crossing the blood/brain barrier [2]: evidence of crossing the blood/brain barrier

Compound: Cn1nnc2c(C(N)=O)ncn2c1=O [temozolomide]
- crossing the blood/brain barrier [2]: can cross the blood/brain barrier
